Measurements: ChEMBL document CHEMBL1153751, “Biologically active tetranorditerpenoids from the fungus Sclerotinia homoeocarpa causal agent of dollar spot in turfgrass” (J Nat Prod, 2009)
Converted amounts (≈) assume the structure as drawn. The source made the active and inactive calls. The rule behind the calls is not given here.

How the values were obtained:
[1] = test system: Plasmodium falciparum; assay: microbe, parasite or virus in culture; settings: W2, 72 h
[2] = test system: Plasmodium falciparum; assay: microbe, parasite or virus in culture; settings: D6, 72 h
[3] = test system: Vero; assay: Cytotoxicity against african green monkey Vero cells at 4760 ng/ml after 48 hrs by neutral red dye staining; type: cell-based; settings: Chlorocebus sabaeus
[4] = Cytotoxicity against pig LLC-PK11 cells after 48 hrs by neutral red dye staining; type: functional, cell-based; settings: Sus scrofa, LLC-PK11, 48 h
[5] = test system: Lactuca sativa; assay: Phytotoxicity against Lactuca sativa at 0.1 mg/ml; type: functional, organism-based
[6] = test system: BT-549; assay: Cytotoxicity against human BT549 cells after 48 hrs by neutral red dye staining; type: functional, cell-based; settings: BT-549, 48 h
[7] = test system: Lactuca sativa; assay: Phytotoxicity against Lactuca sativa at 1 mg/ml; type: functional, organism-based
[8] = test system: KB; assay: Cytotoxicity against human KB cells after 48 hrs by neutral red dye staining; type: functional, cell-based
[9] = test system: Agrostis stolonifera; assay: Phytotoxicity against Agrostis stolonifera at 1 mg/ml; type: functional, organism-based
[10] = test system: SK-OV-3; assay: Cytotoxicity against human SKOV3 cells after 48 hrs by neutral red dye staining; type: functional, cell-based; settings: SK-OV-3, 48 h
[11] = test system: SK-MEL; assay: Cytotoxicity against human SK-MEL cells after 48 hrs by neutral red dye staining; type: functional, cell-based
[12] = test system: Lemna aequinoctialis; assay: Phytotoxicity against Lemna paucicostata after 7 days; type: functional, organism-based; settings: 168 h, read-out: I50
[13] = test system: Vero; assay: Cytotoxicity against african green monkey Vero cells after 48 hrs by neutral red dye staining; type: cell-based; settings: Chlorocebus sabaeus
[14] = test system: Agrostis stolonifera; assay: Phytotoxicity against Agrostis stolonifera at 0.1 mg/ml; type: functional, organism-based
[15] = test system: Lactuca sativa; assay: Phytotoxicity against Lactuca sativa at 0.001 mg/ml; type: functional, organism-based
[16] = test system: Agrostis stolonifera; assay: Phytotoxicity against Agrostis stolonifera at 0.001 mg/ml; type: functional, organism-based
[17] = test system: Agrostis stolonifera; assay: Phytotoxicity against Agrostis stolonifera at 0.01 mg/ml; type: functional, organism-based
[18] = test system: SK-MEL; assay: Cytotoxicity against human SK-MEL cells at 10 ug/ml after 48 hrs by neutral red dye staining; type: functional, cell-based
[19] = test system: KB; assay: Cytotoxicity against human KB cells at 10 ug/ml after 48 hrs by neutral red dye staining; type: functional, cell-based
[20] = test system: SK-OV-3; assay: Cytotoxicity against human SKOV3 cells at 10 ug/ml after 48 hrs by neutral red dye staining; type: functional, cell-based
[21] = Cytotoxicity against pig LLC-PK11 cells at 10 ug/ml after 48 hrs by neutral red dye staining; type: functional, cell-based, Sus scrofa
[22] = test system: BT-549; assay: Cytotoxicity against human BT549 cells at 10 ug/ml after 48 hrs by neutral red dye staining; type: functional, cell-based
[23] = test system: Plasmodium falciparum; assay: Antiplasmodial activity against chloroquine-resistant Plasmodium falciparum W2 assessed as LDH activity at 4760 ng/ml after 72 hrs by malstat reagent method; type: functional, organism-based
[24] = test system: Plasmodium falciparum; assay: Antiplasmodial activity against chloroquine-sensitive Plasmodium falciparum D6 assessed as LDH activity at 4760 ng/ml after 72 hrs by malstat reagent method; type: functional, organism-based
[25] = test system: Lactuca sativa; assay: Phytotoxicity against Lactuca sativa at 0.01 mg/ml; type: functional, organism-based

Row | SMILES | IC50 [1] [µg/mL] | IC50 [2] [µg/mL] | inhibition (INH) [3] | IC50 [4] [µg/mL] | Activity [5] | IC50 [6] [µg/mL] | Activity [7] | IC50 [8] [µg/mL] | Activity [9] | IC50 [10] [µg/mL] | IC50 [11] [µg/mL] | IC50 [12] [nM] | IC50 [13] [µg/mL] | Activity [14] | Activity [15] | Activity [16] | inhibition [19] | inhibition [20] | Activity [25] | further results
1 | C[C@@H]1CC[C@H]2[C@@H](C)C(=O)O[C@@H]3O[C@@]4(C)CC[C@@H]1[C@]32OO4 [ARTEMISININ] | 0.0038 (≈ 0.0135 µM) | 0.0047 (≈ 0.0166 µM) | Not Active |  |  |  |  |  |  |  |  |  |  |  |  |  |  |  |  | 
2 | C[C@@]12C[C@@H](O)C[C@]3(C)C4=CC(=O)OC[C@]45O[C@@H]5[C@@H](OC1=O)C23 (some centres not stated) |  | 0.74 (≈ 2.42 µM) |  | 4.2 (≈ 13.7 µM) | Active | 10 (≈ 32.6 µM) | Active | 6.8 (≈ 22.2 µM) | Active | 10 (≈ 32.6 µM) | 1.1 (≈ 3.59 µM) | 3320 | 3.3 (≈ 10.8 µM) | Active | inactive | inactive |  |  |  | 
3 | C[C@@]12C=CC[C@]3(C)C(=O)O[C@H](C=C4COC(=O)C=C41)C23 (some centres not stated) | 0.13 (≈ 0.477 µM) |  |  | 10 (≈ 36.7 µM) | Active | 9.6 (≈ 35.3 µM) | Active | 4.3 (≈ 15.8 µM) | Active | 6 (≈ 22 µM) | 2.3 (≈ 8.45 µM) | 730 | 3 (≈ 11 µM) | Active | inactive | inactive |  |  |  | 
4 | C[C@]12CC[C@@H](O)[C@]3(C)C(=O)O[C@@H](C13)[C@H]1O[C@]13COC(=O)C=C32 (some centres not stated) |  |  | Not Active |  |  |  | Active |  | Active |  |  |  |  |  | inactive | inactive | inactive | inactive | inactive | Activity [17]: inactive; inhibition [18]: inactive; Cytotoxicity at 10 ug/ml [21]: Not Active; inhibition [22]: inactive; inhibition [23]: inactive; inhibition [24]: inactive
5 | C=C1C(O)CC2[C@](C)(CCC[C@]2(C)C(=O)O)C1CC(=O)O (some centres not stated) |  |  | Not Active |  | inactive |  |  |  | inactive |  |  |  |  | inactive | inactive | inactive | inactive | inactive | inactive | Activity [17]: inactive; inhibition [18]: inactive; Cytotoxicity at 10 ug/ml [21]: Not Active; inhibition [22]: inactive; inhibition [23]: inactive; inhibition [24]: inactive
6 | C[C@]12CCC[C@](C)(C(=O)O)[C@@H]1C=C[C@]1(O)COC(=O)C[C@H]21 [OIDIOLACTONE E] | 0.19 (≈ 0.645 µM) | 0.25 (≈ 0.849 µM) |  | 4.8 (≈ 16.3 µM) |  | 9 (≈ 30.6 µM) | Active | 4.5 (≈ 15.3 µM) | Active | 6.3 (≈ 21.4 µM) | 0.72 (≈ 2.45 µM) |  | 1.7 (≈ 5.78 µM) |  | inactive | inactive |  |  |  | 
7 | C[C@@]12CCC[C@]3(C)C4=CC(=O)OCC4=C[C@@H](OC1=O)C23 (some centres not stated) |  | 0.3 (≈ 1.09 µM) |  | 5.4 (≈ 19.7 µM) | Active | > 10 | Active | 4.2 (≈ 15.3 µM) | Active | > 10 | 1.1 (≈ 4.01 µM) | 950 | 3.7 (≈ 13.5 µM) | Active | inactive | inactive |  |  |  | 
8 | CCN(CC)CCCC(C)Nc1ccnc2cc(Cl)ccc12 (configuration not stated) [CHLOROQUINE] |  |  | Not Active |  |  |  |  |  |  |  |  |  |  |  |  |  |  |  |  | 
9 | C[C@]12C=C[C@H](O)[C@]3(C)C(=O)O[C@@H](C13)[C@H]1O[C@]13COC(=O)C=C32 (some centres not stated) | 0.6 (≈ 1.97 µM) | 0.75 (≈ 2.46 µM) |  | 2.8 (≈ 9.2 µM) | Active | 4.8 (≈ 15.8 µM) | Active | 4.4 (≈ 14.5 µM) | Active | 8 (≈ 26.3 µM) | 0.58 (≈ 1.91 µM) | 390 | 1.5 (≈ 4.93 µM) | Active |  |  |  |  | Active | 
10 | C[C@@]12C[C@@H](O)C[C@]3(C)C4=CC(=O)OCC4=C[C@@H](OC1=O)C23 (some centres not stated) |  |  |  | 1.2 (≈ 4.13 µM) | Active | 4.7 (≈ 16.2 µM) | Active | 2.1 (≈ 7.23 µM) | Active | 3.2 (≈ 11 µM) | 0.41 (≈ 1.41 µM) | 9090 | 1 (≈ 3.44 µM) | Active |  |  |  |  |  | 
11 | C[C@@]12C=C[C@H](O)[C@]3(C)C(=O)O[C@H](C=C4COC(=O)C=C41)C23 (some centres not stated) | 0.032 (≈ 0.111 µM) |  |  | 1.1 (≈ 3.82 µM) | Active | 1.2 (≈ 4.16 µM) | Active | 0.6 (≈ 2.08 µM) | Active | 1.1 (≈ 3.82 µM) | 0.12 (≈ 0.416 µM) | 790 | 0.95 (≈ 3.3 µM) | Active | inactive | inactive |  |  | Active | 
12 | C[C@@]12CC[C@@H](O)[C@]3(C)C4=CC(=O)OC[C@]45O[C@@H]5[C@@H](OC1=O)C23 (some centres not stated) |  |  | Not Active |  | Active |  | Active |  | Active |  | 10 (≈ 32.6 µM) | 6420 |  | Active |  | inactive | inactive | inactive |  | Cytotoxicity at 10 ug/ml [21]: Not Active; inhibition [22]: inactive; inhibition [23]: inactive; inhibition [24]: inactive
13 | C[C@@]12CC[C@@H](O)[C@]3(C)C(=O)O[C@H](C=C4COC(=O)C=C41)C23 (some centres not stated) |  |  | Not Active |  |  |  | Active |  | Active |  |  |  |  |  | inactive | inactive | inactive | inactive | inactive | Activity [17]: inactive; inhibition [18]: inactive; Cytotoxicity at 10 ug/ml [21]: Not Active; inhibition [22]: inactive; inhibition [23]: inactive; inhibition [24]: inactive
14 | C[C@@]12CC[C@@H](O)[C@]3(C)C4=CC(=O)OCC4=C[C@@H](OC1=O)C23 (some centres not stated) |  |  |  | > 10 | Active | > 10 | Active | > 10 | Active | > 10 | 3.3 (≈ 11.4 µM) | 547000 | 4.76 (≈ 16.4 µM) | Active | inactive | inactive |  |  |  | 
15 | C[C@]12C=CC[C@]3(C)C(=O)O[C@@H](C13)[C@H]1O[C@]13COC(=O)C=C32 (some centres not stated) | 2.3 (≈ 7.98 µM) | 2.3 (≈ 7.98 µM) | Not Active | > 10 | Active | > 10 | Active |  | Active |  | 2.8 (≈ 9.71 µM) | 650 |  | Active | inactive |  | inactive | inactive |  | 
